These results are taken from patent publication US6833389B2, “Use of thiamphenicol and derivatives thereof for the preparation of pharmaceutical compositions useful in the treatment of Chlamydia pneumoniae infections” (Zambon Group S.p.A., priority 2000, dated 2004).

Experiment [1] has as its system Chlamydia pneumoniae. Nature of the experiment: MIC against Chlamydia pneumoniae strains in Hep-2 cell monolayers (inhibition of inclusion formation). It is filed as cell-based. How it is done:
Chlamydia pneumoniae TW183 and Chlamydia pneumoniae 2023 were obtained from American Type Culture Collection. The other strains (No. 9 isolated) were clinically isolated in the period 1997-1999. […] Monolayers of Hep-2 cells were prepared by seeding 2×10^5 cell/ml in EMEM with 10% fetal calf serum supplemented with L-glutammine, on 12 mm cover slips and left at 35° C., 5% CO2 for 24 to 48 hours for confluent growth. The growth medium was removed and Hep-2 monolayers were inoculated with the different strains at predetermined concentration calculated to give 3-5×10^2 inclusions for well. The monolayers, inoculated with Chlamydia pneumoniae were centrifuged at 1700 g for 60 minutes at 30° C. […] In positive control no antibiotic was added and negative control were considered wells not inoculated with Chlamydia pneumoniae. […] All tests were run in duplicate. The number of inclusions were counted and the MIC (the lowest concentration at which complete inhibition of inclusion formation was observed) was determined.

In experiment [2] the test system is Chlamydia pneumoniae. The note with it: background statement; cited from earlier work.
The mark [3] stands for this setting: Chlamydia pneumoniae, 72 h, MIC range over the 11 Chlamydia pneumoniae strains, Hep-2 cells, 3 days, read-out: MIC.
Where [4] appears, read: Chlamydia pneumoniae, ATCC2023, strain ATCC 2023, test I, read-out: MIC.
[5] abbreviates: Chlamydia pneumoniae, strain 1 (clinical isolate), test I, read-out: MIC.
Setting [6] is: Chlamydia pneumoniae, strain 2 (clinical isolate), test I, read-out: MIC.
The mark [7] stands for this setting: Chlamydia pneumoniae, strain 2 (clinical isolate), test II, read-out: MIC.
The mark [8] stands for this setting: Chlamydia pneumoniae, strain 3 (clinical isolate), test I, read-out: MIC.
The mark [9] stands for this setting: Chlamydia pneumoniae, strain 3 (clinical isolate), test II, read-out: MIC.
[10] abbreviates: Chlamydia pneumoniae, strain 4 (clinical isolate), test II, read-out: MIC.
[11] abbreviates: Chlamydia pneumoniae, strain 5 (clinical isolate), test I, read-out: MIC.
[12] abbreviates: Chlamydia pneumoniae, strain 5 (clinical isolate), test II, read-out: MIC.

Converted amounts (≈) assume the structure as drawn. Where two headings read alike, the source gives them in different places.

Take `CC1(C)S[C@@H]2[C@H](NC(=O)[C@H](N)c3ccc(O)cc3)C(=O)N2[C@H]1C(=O)O` [Amoxicillin, amoxicillin]: in the experiment on Chlamydia pneumoniae [1] (setting [3]), the MIC was over 16 µg/mL.

Turning to `CC[C@H]1OC(=O)[C@H](C)[C@@H](O[C@H]2C[C@@](C)(OC)[C@@H](O)[C@H](C)O2)[C@H](C)[C@@H](O[C@@H]2O[C@H](C)C[C@H](N(C)C)[C@H]2O)[C@](C)(O)C[C@@H](C)CN(C)[C@H](C)[C@@H](O)[C@]1(C)O` [Azithromycin, azithromycin], the MIC in the experiment on Chlamydia pneumoniae [1] (setting [3]) is 0.06 to 0.5 µg/mL (≈ 0.0801 to 0.668 µM); in the experiment on Chlamydia pneumoniae [1] (setting [4]), 0.06 µg/mL (≈ 0.0801 µM); with Chlamydia pneumoniae [1] (setting [5]), 0.5 µg/mL (≈ 0.668 µM); with Chlamydia pneumoniae [1] (setting [6]) it was 0.06 µg/mL (≈ 0.0801 µM); in the experiment on Chlamydia pneumoniae [1] (setting [7]), 0.25 µg/mL (≈ 0.334 µM); in the experiment on Chlamydia pneumoniae [1] (setting [8]) it was 0.06 µg/mL (≈ 0.0801 µM). The MIC in the experiment with Chlamydia pneumoniae [1] (setting [9]) is 0.06 µg/mL (≈ 0.0801 µM); with Chlamydia pneumoniae [1] (Chlamydia pneumoniae, strain 4 (clinical isolate), test I, read-out: MIC), 0.5 µg/mL (≈ 0.668 µM); in the experiment on Chlamydia pneumoniae [1] (setting [10]), 0.5 µg/mL (≈ 0.668 µM); in the experiment with Chlamydia pneumoniae [1] (setting [11]), 0.25 µg/mL (≈ 0.334 µM); in the experiment with Chlamydia pneumoniae [1] (setting [12]), 0.25 µg/mL (≈ 0.334 µM); in the experiment on Chlamydia pneumoniae [1] (Chlamydia pneumoniae, strain 6 (clinical isolate), test II, read-out: MIC), 0.25 µg/mL (≈ 0.334 µM). Further, the minimum inhibitory concentration (MIC) was found to be 0.25 µg/mL (≈ 0.334 µM) in the experiment with Chlamydia pneumoniae [1] (Chlamydia pneumoniae, strain 7 (clinical isolate), test I, read-out: MIC); 0.25 µg/mL (≈ 0.334 µM) in the experiment with Chlamydia pneumoniae [1] (Chlamydia pneumoniae, strain 7 (clinical isolate), test II, read-out: MIC); 0.25 µg/mL (≈ 0.334 µM) in the experiment with Chlamydia pneumoniae [1] (Chlamydia pneumoniae, strain 8 (clinical isolate), test I, read-out: MIC); 0.25 µg/mL (≈ 0.334 µM) in the experiment on Chlamydia pneumoniae [1] (Chlamydia pneumoniae, strain 8 (clinical isolate), test II, read-out: MIC); 0.5 µg/mL (≈ 0.668 µM) in the experiment on Chlamydia pneumoniae [1] (Chlamydia pneumoniae, strain 9 (clinical isolate), test I, read-out: MIC); 0.25 µg/mL (≈ 0.334 µM) in the experiment on Chlamydia pneumoniae [1] (Chlamydia pneumoniae, strain TW 183, test II, read-out: MIC). For the same molecule, the “activity in vitro against Chlamydia pneumoniae” value with Chlamydia pneumoniae [2] was “active”.

As for `CO/N=C(\C(=O)N[C@@H]1C(=O)N2C(C(=O)O)=C(CSc3nc(=O)c(=O)[nH]n3C)CS[C@H]12)c1csc(N)n1` [Ceftriaxone, ceftriaxone], the minimal inhibitory concentration (MIC) with Chlamydia pneumoniae [1] (setting [3]) is over 16 µg/mL.

As to `CC[C@H]1OC(=O)[C@H](C)[C@@H](O[C@H]2C[C@@](C)(OC)[C@@H](O)[C@H](C)O2)[C@H](C)[C@@H](O[C@@H]2O[C@H](C)C[C@H](N(C)C)[C@H]2O)[C@](C)(OC)C[C@@H](C)C(=O)[C@H](C)[C@@H](O)[C@]1(C)O` [Clarithromycin, clarithromycin], the MIC against Chlamydia pneumoniae [1] (Chlamydia pneumoniae) is 0.125 µg/mL (≈ 0.167 µM); in the experiment on Chlamydia pneumoniae [1] (setting [3]), 0.03 to 0.25 µg/mL (≈ 0.0401 to 0.334 µM); in the experiment with Chlamydia pneumoniae [1] (setting [4]), 0.03 µg/mL (≈ 0.0401 µM); with Chlamydia pneumoniae [1] (Chlamydia pneumoniae, ATCC2023, strain ATCC 2023, test II, read-out: MIC), 0.03 µg/mL (≈ 0.0401 µM); with Chlamydia pneumoniae [1] (setting [5]) it was 0.03 µg/mL (≈ 0.0401 µM); in the experiment on Chlamydia pneumoniae [1] (Chlamydia pneumoniae, strain 1 (clinical isolate), test II, read-out: MIC), 0.03 µg/mL (≈ 0.0401 µM). Also, the MIC with Chlamydia pneumoniae [1] (setting [6]) amounted to 0.25 µg/mL (≈ 0.334 µM); in the experiment with Chlamydia pneumoniae [1] (setting [7]) it was 0.03 µg/mL (≈ 0.0401 µM); with Chlamydia pneumoniae [1] (setting [8]), 0.03 µg/mL (≈ 0.0401 µM); in the experiment with Chlamydia pneumoniae [1] (setting [9]), 0.03 µg/mL (≈ 0.0401 µM); with Chlamydia pneumoniae [1] (setting [10]), 0.06 µg/mL (≈ 0.0802 µM); in the experiment on Chlamydia pneumoniae [1] (setting [11]), 0.03 µg/mL (≈ 0.0401 µM). For the same molecule, the minimal inhibitory concentration (MIC) amounted to 0.03 µg/mL (≈ 0.0401 µM) in the experiment on Chlamydia pneumoniae [1] (setting [12]); 0.03 µg/mL (≈ 0.0401 µM) with Chlamydia pneumoniae [1] (Chlamydia pneumoniae, strain 6 (clinical isolate), test I, read-out: MIC); 0.03 µg/mL (≈ 0.0401 µM) with Chlamydia pneumoniae [1] (Chlamydia pneumoniae, strain 9 (clinical isolate), test II, read-out: MIC); 0.03 µg/mL (≈ 0.0401 µM) in the experiment on Chlamydia pneumoniae [1] (Chlamydia pneumoniae, strain TW 183, test I, read-out: MIC); 0.125 µg/mL (≈ 0.167 µM) in the experiment with Chlamydia pneumoniae [1] (strain 4 (clinical isolate), test I); 0.125 µg/mL (≈ 0.167 µM) against Chlamydia pneumoniae [1] (strain 7 (clinical isolate), test I). The MIC against Chlamydia pneumoniae [1] (strain 7 (clinical isolate), test II) amounted to 0.125 µg/mL (≈ 0.167 µM); against Chlamydia pneumoniae [1] (strain 8 (clinical isolate), test I) it was 0.125 µg/mL (≈ 0.167 µM); against Chlamydia pneumoniae [1] (strain 8 (clinical isolate), test II) it was 0.125 µg/mL (≈ 0.167 µM); with Chlamydia pneumoniae [1] (strain 9 (clinical isolate), test I), 0.125 µg/mL (≈ 0.167 µM); in the experiment on Chlamydia pneumoniae [1] (strain TW 183, test II) it was 0.125 µg/mL (≈ 0.167 µM). Further, in the experiment on Chlamydia pneumoniae [2], the “activity in vitro against Chlamydia pneumoniae” value is listed as “active”.
